Test results from ChEMBL document CHEMBL1201862, “PubChem BioAssay data set” (2004).
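Five compound concentrations were applied to cells in 96-well plates for 48 hours; endpoints were derived by simple linear interpolation of the resulting dose-response curve. Here, GI50 denotes the concentration required for 50% inhibition of growth.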 Calls of active or inactive are those of the source. Rule as the data show it: active = GI50 up to about 1.1 µM and inactive = higher.

Legend:
Assay in all cases: inhibition of tumour cell growth, NCI panel, 48 h
SN12C = tested on: SN12C
OVCAR-5 = tested on: OVCAR-5
M14 = tested on: M14
MDA-MB-231 = tested on: MDA-MB-231
DU-145 = tested on: DU-145
UACC-62 = tested on: UACC-62
SK-MEL-5 = tested on: SK-MEL-5
PC-3 = tested on: PC-3
HOP-62 = tested on: HOP-62
HCT-15 = tested on: HCT-15
SW-620 = tested on: SW-620
EKVX = tested on: EKVX
SR = tested on: SR
MDA-MB-435 = tested on: MDA-MB-435
UO-31 = tested on: UO-31
NCI-H23 = tested on: NCI-H23
OVCAR-3 = tested on: OVCAR-3
MCF7 = tested on: MCF7
NCI-H522 = tested on: NCI-H522
A549 = tested on: A549

Structure (SMILES) | GI50 (SN12C) | GI50 (OVCAR-5) | GI50 (M14) | GI50 (MDA-MB-231) | GI50 (DU-145) | GI50 (UACC-62) | GI50 (SK-MEL-5) | GI50 (PC-3) | GI50 (HOP-62) | GI50 (HCT-15) | GI50 (SW-620) | GI50 (EKVX) | GI50 (SR) | GI50 (MDA-MB-435) | GI50 (UO-31) | GI50 (NCI-H23) | GI50 (OVCAR-3) | GI50 (MCF7) | GI50 (NCI-H522) | GI50 (A549)
CC(=O)Nc1ccc2cc3[nH]c4cc(NC(C)=O)ccc4c3nc2c1 | > 100 µM (inactive) | > 100 µM (inactive) | > 100 µM (inactive) | > 100 µM (inactive) | > 100 µM (inactive) | > 100 µM (inactive) | > 100 µM (inactive) | > 100 µM (inactive) | > 100 µM (inactive) | > 100 µM | > 100 µM (inactive) | > 100 µM (inactive) | 61.1 µM (inactive) | > 100 µM (inactive) | > 100 µM (inactive) | > 100 µM (inactive) | > 100 µM (inactive) | > 100 µM (inactive) | > 100 µM (inactive) | > 100 µM (inactive)
O=c1[nH]nc(-c2ccccc2)n1/N=C/c1ccc([N+](=O)[O-])o1 | 4.37 µM (inactive) | 10.4 µM (inactive) | 4.14 µM (inactive) | 6.71 µM (inactive) | 3.45 µM (inactive) | 5.21 µM (inactive) | 14.8 µM (inactive) | 6.35 µM (inactive) | 6.11 µM (inactive) | 2.21 µM | 2.49 µM (inactive) | 8.63 µM (inactive) | 1.08 µM (active) | 5.2 µM (inactive) | 4.32 µM (inactive) | 5.9 µM (inactive) | 0.993 µM (active) | 2.04 µM (inactive) | 1.32 µM (inactive) | 7.66 µM (inactive)
O=C(O)c1cccc(CC(Br)C(=O)O)c1 (stereo not given) | > 100 µM (inactive) | > 100 µM (inactive) | > 100 µM (inactive) | > 100 µM (inactive) | > 100 µM (inactive) | > 100 µM (inactive) | > 100 µM (inactive) | > 100 µM (inactive) | > 100 µM (inactive) | > 100 µM | > 100 µM (inactive) | > 100 µM (inactive) | > 100 µM (inactive) | > 100 µM (inactive) | > 100 µM (inactive) | > 100 µM (inactive) | > 100 µM (inactive) | > 100 µM (inactive) | > 100 µM (inactive) | > 100 µM (inactive)
CCc1oc2ccccc2c1C(=O)c1cc(Br)c(O)c(Br)c1 [BENZBROMARONE] | 26 µM (inactive) | 21.4 µM (inactive) | 28.9 µM (inactive) | 20.5 µM (inactive) | 43.3 µM (inactive) | 16.9 µM (inactive) | 17.4 µM (inactive) | 20 µM (inactive) | 34.3 µM (inactive) | 27.6 µM | 35.6 µM (inactive) | 30.7 µM (inactive) | 23.5 µM (inactive) | 29.7 µM (inactive) | 21.6 µM (inactive) | 24.5 µM (inactive) | 18.2 µM (inactive) | 23.7 µM (inactive) | 19.9 µM (inactive) | 34.8 µM (inactive)
